Among the data in patent publication US11034718B2, “C-3 novel triterpenone with C-17 reverse amide derivatives as HIV inhibitors” (HETERO LABS LIMITED, priority 2015, dated 2021) are IC50, AUC(0-t) and Cmax values, retold here.

pIC50: −log10 of the molar value. Read-outs that look alike come from different tables or passages of the source.

One series relates to HIV-1 strain 92HT599. Put plainly: Antiviral activity against HIV-1 strain 92HT599 in MT2 cells (p24 estimation). The series is classed as cell-based. To be noted: HIV-1 92HT599, ~96 hours. Summed up: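 Percent inhibition versus vehicle controls came from p24 quantified in supernatant aliquots. These were taken after ~96 h incubation of compound (DMSO ≤1%) with MT2 cells infected at 10 TCID50/30,000 cells.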

A further series deals with HIV-1 pNL4-3 WT. Put plainly: Antiviral activity against pNL4-3/WT strain in MT4 cells (p24 estimation). Type of series: cell-based. The following applies: Human immunodeficiency virus 1, MT4, 96 h, read-out: pNL4-3 WT IC50. Summed up: (§1)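 MT4 cells infected with HIV-1 pNL4-3 WT or V7A (defined TCID50, 1.5 h, 37° C), plated at 3×10^4 cells/well with test compound, final DMSO ≤1%. After 4 days' culture, p24 in supernatant aliquots measured by kit.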

In another series the test system is HIV-1 pNL4-3 V7A. Put plainly: Antiviral activity against pNL4-3/V7A strain in MT4 cells (p24 estimation). The series is classed as cell-based. To be noted: Human immunodeficiency virus 1, MT4, 96 h, read-out: pNL4-3 V7A IC50. Summed up: as §1
The nature of series [1]: Single dose oral pharmacokinetic study. The following applies: mouse; Mice oral PK @30 mg/kg; plasma. Type of series: in vivo. As to the method: Example 80: Evaluation of Compounds Single Dose Oral Pharmacokinetic Study
The test item was administered through oral route to animals (rat/mice) at 30 mg/kg dose in a suitable vehicle (10% Solutol+20% PEG) at 10 ml/kg dose volume. Blood samples (˜50 μL at each time point) were collected from retro-orbital plexus using K3 EDTA as anticoagulant in eppendorf tubes at defined time intervals 30 minutes, 1 hour, 2 hour, 4 hour, 8 hour, 24 hour & 48 hour under light ether anaesthesia. The samples were centrifuged at 3500×g to separate plasma and stored at −80° C. until analysis. Plasma 25 μl for Mice were processed as per described in sample preparation.
Standard solutions of the test compound 1 mg/mL solutions were prepared in DMSO and further dilutions were made in methanol. The calibration curve samples for LCMSMS analysis were prepared by spiking 25 μl of Mice plasma with 2.5 μl and of the appropriate working standard solution to obtain final concentrations 0.078, 0.156, 0.312, 0.625, 1.25, 2.5, 5, 10, 20 & 40 μg/ml. To the test compound plasma extraction was carried out using Acetonitrile precipitation. After reconstitution with solvent (50% Acetonitrile in Buffer) samples were analyzed by LCMSMS to get the concentrations to calculate PK Parameters.

Setting [2] is: Human immunodeficiency virus 1, 0% serum binding assay, read-out: IC50 0% serum.
The mark [3] stands for this setting: Human immunodeficiency virus 1, 40% serum binding assay, read-out: IC50 40% serum.

Broadly, the pIC50 is the negative decadic logarithm of the IC50, by convention in mol/L. The AUC(0-t) is exposure summed from dosing to a finite time, without extrapolation to infinity. Higher therefore signals high exposure. For orientation: Cmax means the maximum level reached in the sampled fluid or tissue. As to `CC(C)C1=C2[C@H]3CC[C@@H]4[C@@]5(C)CC[C@H](OC(=O)[C@H]6C[C@@H](C(=O)O)C6(C)C)C(C)(C)[C@@H]5CC[C@@]4(C)[C@]3(C)CC[C@@]2(NC(=O)C(C)(C)NS(=O)(=O)c2ccc(Cl)cc2)CC1=O` [Example 65, (1R,3S)-3-((((3aR,5aR,5bR,7aR,9S,11aR,11bR,13aS)-3a-(2-((4-chlorophenyl)sulfonamido)-2-methylpropanamido)-1-isopropyl-5a,5b,8,8,11a-pentamethyl-2-oxo-3,3a,4,5,5a,5b,6,7,7a,8,9,10,11,11a,11b,12,13,13a-octadecahydro-2H-cyclopenta[a]chrysen-9-yl)oxy)carbonyl)-2,2-dimethylcyclobutane-1-carboxylic acid], the pIC50 is over 8.52 with HIV-1 strain 92HT599 (setting [2]), over 7.30 in the series on HIV-1 strain 92HT599 (setting [3]), under 8.00 in the series on HIV-1 pNL4-3 WT and under 7.30 in the series with HIV-1 pNL4-3 V7A. Also, the AUC(0-t) in series [1] came out at 145 µg·h/mL. This molecule showed a Cmax in series [1] of 7380 ng/mL.
Take `CC(C)C1=C2[C@H]3CC[C@@H]4[C@@]5(C)CC[C@H](OC(=O)[C@H]6C[C@@H](C(=O)O)C6(C)C)C(C)(C)[C@@H]5CC[C@@]4(C)[C@]3(C)CC[C@@]2(NC(=O)C(C)(C)NC(=O)c2ccc(Cl)cc2)CC1=O` [Example 1, (1R,3S)-3-((((3aR,5aR,5bR,7aR,9S,11aR,11bR,13aS)-3a-(2-(4-chlorobenzamido)-2-methylpropanamido)-1-isopropyl-5a,5b,8,8,11a-pentamethyl-2-oxo-3,3a,4,5,5a,5b,6,7,7a,8,9,10,11,11a,11b,12,13,13a-octadecahydro-2H-cyclopenta[a]chrysen-9-yl)oxy)carbonyl)-2,2-dimethylcyclobutane-1-carboxylic acid]: the pIC50 in the series on HIV-1 strain 92HT599 (setting [2]) was over 8.52; with HIV-1 strain 92HT599 (setting [3]), over 7.30; with HIV-1 pNL4-3 WT, over 8.30; in the series on HIV-1 pNL4-3 V7A, over 8.00.
For `CC(C)C1=C2[C@H]3CC[C@@H]4[C@@]5(C)CC[C@H](OC(=O)[C@H]6C[C@@H](C(=O)O)C6(C)C)C(C)(C)[C@@H]5CC[C@@]4(C)[C@]3(C)CC[C@@]2(NC(=O)C2(NC(=O)c3ccc(Cl)cc3)CC2)CC1=O` [Example 37, (1R,3S)-3-((((3aR,5aR,5bR,7aR,9S,11aR,11bR,13aS)-3a-(1-(4-chlorobenzamido)cyclopropane-1-carboxamido)-1-isopropyl-5a,5b,8,8,11a-pentamethyl-2-oxo-3,3a,4,5,5a,5b,6,7,7a,8,9,10,11,11a,11b,12,13,13a-octadecahydro-2H-cyclopenta[a]chrysen-9-yl)oxy)carbonyl)-2,2-dimethylcyclobutane-1-carboxylic acid] the same measures were over 8.52, over 7.30, over 8.30 and over 8.00.
For the molecule `Cc1ccc(C(=O)NC2(C(=O)N[C@@]34CC[C@]5(C)[C@H](CC[C@@H]6[C@@]7(C)CC[C@H](OC(=O)[C@H]8C[C@@H](C(=O)O)C8(C)C)C(C)(C)[C@@H]7CC[C@]65C)C3=C(C(C)C)C(=O)C4)CC2)cn1` [Example 38, (1R,3S)-3-((((3aR,5aR,5bR,7aR,9S,11aR,11bR,13aS)-1-isopropyl-5a,5b,8,8,11a-pentamethyl-3a-(1-(6-methylnicotinamido)cyclopropane-1-carbox amido)-2-oxo-3,3a,4,5,5a,5b,6,7,7a,8,9,10,11,11a,11b,12,13,13a-octadecahydro-2H-cyclopenta[a]chrysen-9-yl)oxy)carbonyl)-2,2-dimethylcyclobutane-1-carboxylic acid], the negative-log IC50 (pIC50) was over 8.52 with HIV-1 strain 92HT599 (setting [2]), over 7.30 with HIV-1 strain 92HT599 (setting [3]), over 8.30 in the series on HIV-1 pNL4-3 WT and over 8.00 in the series on HIV-1 pNL4-3 V7A.
Taken in the same sequence, the figures for `CC(C)C1=C2[C@H]3CC[C@@H]4[C@@]5(C)CC[C@H](OC(=O)[C@H]6C[C@@H](C(=O)O)C6(C)C)C(C)(C)[C@@H]5CC[C@@]4(C)[C@]3(C)CC[C@@]2(NC(=O)C(C)(C)NC(=O)c2ccc3ccccc3n2)CC1=O` [Example 28, (1R,3S)-3-((((3aR,5aR,5bR,7aR,9S,11aR,11bR,13aS)-1-isopropyl-5a,5b,8,8,11a-pentamethyl-3a-(2-methyl-2-(quinoline-2-carboxamido)propanamido)-2-oxo-3,3a,4,5,5a,5b,6,7,7a,8,9,10,11,11a,11b,12,13,13a-octadecahydro-2H-cyclopenta[a]chrysen-9-yl)oxy)carbonyl)-2,2-dimethylcyclobutane-1-carboxylic acid] were over 8.52, over 7.30, 8.00 to 8.30 and 7.30 to 8.00.
Taken in the same sequence, the figures for `CC(C)C1=C2[C@H]3CC[C@@H]4[C@@]5(C)CC[C@H](OC(=O)[C@H]6C[C@@H](C(=O)O)C6(C)C)C(C)(C)[C@@H]5CC[C@@]4(C)[C@]3(C)CC[C@@]2(NC(=O)C(C)(C)NC(=O)c2csc(N)n2)CC1=O` [Example 55, (1R,3S)-3-((((3aR,5aR,5bR,7aR,9S,11aR,11bR,13aS)-3a-(2-(2-aminothiazole-4-carboxamido)-2-methylpropanamido)-1-isopropyl-5a,5b,8,8,11a-pentamethyl-2-oxo-3,3a,4,5,5a,5b,6,7,7a,8,9,10,11,11a,11b,12,13,13a-octadecahydro-2H-cyclopenta[a]chrysen-9-yl)oxy)carbonyl)-2,2-dimethylcyclobutane-1-carboxylic acid] were 8.00 to 8.52, 6.70 to 7.30, under 8.00 and under 7.30.
